Laboratory results: patent publication US20220347144A1, “COMPOSITIONS AND METHODS FOR PREVENTING AND/OR REDUCING WEIGHT GAIN AND ASSOCIATED CONDITIONS” (University of Virginia Patent Foundation, priority 2019, published 2022)
Entries after “also recorded” stand apart in the source; their conditions may differ.

How the values were obtained:
[1] = tested on: C57Bl/6J mice; experiment: Plasma C24:1-ceramides after 72 hours on the diets; type: in vivo, mouse; settings: control and HFDs; 72 hours on diets
Source text: (§1) Diets. Diets were obtained from Research Diets (New Brunswick, N.J., United States of America). The low fat chow was D12450Ji (10 kcal % fat) and the high fat chow was D12492 (60 kcal % fat). These two chows were reformulated by replacing a portion of dietary fat with an ethyl ester of nervonic acid from Nu-Chek Prep (Elysian, Minn., United States of America) to produce isocaloric diets with nervonic acid at 6 g per kg of diet (0.6%). For the three most prevalent fatty acids in these diets: C16 comprised 14.4%, 11.7%, 18.5%, and 18.1%; C18:1 comprised 27.4%, 22.8%, 32%, and 31.4%; and C18:2 comprised 39.6%, 36.2%, 26.9%, and 26.5% of the fatty acid composition of the Cnt, Cnt+NA, HFD, and HFD+NA diets, respectively. Mice were started on diets at ˜8 weeks of age and given ad libitum access.
Sphingolipid and acylcarnitine measurements by liquid chromatography-mass spectrometry. Sphingolipids were analyzed as described previously (Wijesinghe et al., 2010) for FIG. 1B or with modifications described herein. Liver samples from rats fed a low or high fat diet were obtained from Scot Kimball's laboratory at the Pennsylvania State University (Hershey, Pa.). Mouse liver samples were analyzed with modifications as described previously (Pearson et al., 2020). […]

[2] = tested on: HEK293 cells; experiment: CerS2 siRNA knockdown in HEK293 cells with nervonic acid treatment, C24:1 ceramide; type: cell-based; settings: 1 μM NA for 24 hours
Procedure: Cell culture. HEK293 cells were grown in DMEM containing 10% FBS. Cells were transfected with Silencer Select siRNA to CerS2 (s26789) or Silencer Select negative control No. 1 using LIPOFECTAMINE® 3000 brand transfection reagent following the manufacturer's protocol. All culture reagents were obtained from Thermo Fisher Scientific (Waltham, Mass., United States of America). 48 hours post-transfection, cells were treated with vehicle or 1 μM nervonic acid for 24 hours.
Sphingolipid and acylcarnitine measurements by liquid chromatography-mass spectrometry. Sphingolipids were analyzed as described previously (Wijesinghe et al., 2010) for FIG. 1B or with modifications described herein. Liver samples from rats fed a low or high fat diet were obtained from Scot Kimball's laboratory at the Pennsylvania State University (Hershey, Pa.). Mouse liver samples were analyzed with modifications as described previously (Pearson et al., 2020). For FIGS. 1A and 5D, liver homogenates were subjected to lipid extraction and subjected to liquid chromatography-electrospray ionization mass spectrometry was performed on an I-class Acquity with a 2.1 mm×10 cm C18 CSH […] particle size column coupled to an in-line TQ-S mass spectrometer from Waters Corporation (Milford, Mass., United States of America).

[3] = tested on: C57Bl/6J mice; experiment: Body weight over 12 weeks on the diets; type: in vivo, mouse
Procedure: Animals. Animal experiments were approved by the Animal Care and Use Committee of the University of Virginia (Charlottesville, Va., United States of America). C57Bl/6J mice were obtained from Jackson Laboratories (Bar Harbor, Me., United States of America). Mice were group housed in standard cages with up to five mice per cage with a 12 hour dark/light cycle. All mice were weighed once per week. Weekly food consumption was measured, with the amount consumed per cage averaged amongst the mice in the cage. Body composition was determined by use of an ECHOMRI™-100H Body Composition Analyzer (EchoMRI LLC, Houston, Tex., United States of America).
as §1

[4] = tested on: C57Bl/6J mice; experiment: Fecal caloric content by bomb calorimetry; type: in vivo, mouse
Procedure: (§2) For determination of energy expenditure, respiratory exchange ratios, and activity, mice were placed in an Oxymax metabolic chamber systems (Comprehensive Laboratory Animal Monitoring System, CLAMS, from Columbus Instruments (Columbus, Ohio, United States of America). Oxygen consumption (V02) and carbon dioxide production (VCO2) were determined for each mouse every 18 minutes over 72 hours with ambulatory activity assessed every minute over this same time period. Only the last two complete light and dark cycles (spanning 48 hours) were used for data analysis. Feces was collected from these studies and shipped to the Mouse Metabolic Phenotyping Core at the University of Texas Southwestern for bomb calorimetry analysis using a Parr 6200 Isoperibol Calorimeter (Parr Instrument Company, Moline, Ill., United States of America).

[5] = tested on: C57Bl/6J mice; experiment: Glucose Tolerance Test (GTT); type: in vivo, mouse; settings: HFD+NA versus HFD, 10 weeks on diets
Procedure: Insulin Tolerance Test (ITT) and Glucose Tolerance Test (GTT) and analysis of blood glucose and plasma insulin. ITT and GTT were performed as described in Lansey et al., 2012. Briefly, for ITT, random-fed mice were given an intraperitoneal injection (IP) of insulin (0.75 U/kg in 0.9% NaCl). Blood glucose levels were determined by a glucometer (Contour Next EZ Blood Glucose Monitoring System, Bayer, Leverkusen, Germany) at the indicated time points after injection. For GTT, mice were fasted for 16 hours prior to testing. D-Glucose, prepared the day before, was administered via an IP injection (1 g/kg), and blood glucose levels were determined by a glucometer at the indicated time points after injection. Plasma insulin levels were determined using a STELLUX® brand Chemi Rodent Insulin ELISA kit (Cat. No. 80-INSMR-CHO1; APLCO, Salem, N.H., United States of America) or an Ultrasensitive Rat/Mouse Insulin ELISA kit, Low Range Assay (Cat. No. 90060; Crystal Chem, Downers Grove, Ill., United States of America). The luminescence assay was conducted using a VICTOR2 Plate Reader (Perkin Elmer, Waltham, Mass., United States of America).

[6] = tested on: C57Bl/6J mice; experiment: Energy expenditure, respiratory exchange ratio and locomotion in metabolic cages; type: in vivo, mouse
Procedure: as §2

[7] = tested on: C57Bl/6J mice; experiment: Liver acylcarnitine levels by LC-MS/MS; type: in vivo, mouse
Procedure: Acylcarnitines were quantified as their butyl esters as described in Giesbertz et al., 2015. Briefly, liver tissue was extracted in ice-cold methanol spiked with stable-isotopically labeled internal standards (Cambridge Isotope Laboratories, Tewksbury, Mass., United States of America). Insoluble material was pelleted and the supernatant subsequently dried down under vacuum. Samples were solubilized in n-butanol containing 5% acetyl chloride and incubated for 60° C. for 20 minutes, Samples were subsequently dried down again and resuspended in 50:50 water:methanol for LC-ESI-MS/MS analysis. LC-MS/MS analysis was performed on a I-class Acquity with a 2.1 mm×10 cm C18 CSH […] particle size column coupled to an in-line TQ-S mass spectrometer using multiple reaction monitoring. Calibration curves were generated from standard mixtures of acylcarnitines from Cambridge Isotope Laboratories.

[8] = NA enrichment in both the control diet and the HFD

(Z)-tetracos-15-enoic acid [NA]
plasma C24:1-ceramides [1]: significant increases | C24:1 ceramide after CerS2 knockdown [2]: only partially restored | body weight gain ([3]; HFD+NA versus HFD, 12 weeks): significantly less body weight gain | body weights ([3]; HFD+NA versus control diet, 12 weeks): not significantly different | body weight gains over time ([3]; NA-enriched control diet versus control diet): significantly less body weight gains over time | fecal caloric content ([4]; HFD+NA versus HFD): No differences | fecal caloric content ([4]; control+NA versus control): No differences | glucose tolerance (glucose load, area under the curve) [5]: significantly improved glucose tolerance | glucose tolerance (glucose load, area under the curve) ([5]; listed as nervonic acid): reduction in the glucose load | ambulatory activity ([6]; HFD+NA versus HFD): similar | oxygen consumption (VO2) ([6]; HFD+NA versus HFD, light and dark cycle): significantly lower | carbon dioxide production (VCO2) ([6]; HFD+NA versus control and HFD groups): significant reduction | ambulatory activity ([6]; control+NA versus control): similar | heat production ([6]; control+NA versus control): No differences | respiratory exchange ratio (RER) ([6]; control+NA versus control, light and dark cycles): No statistical changes | dicarboxyl-acylcarnitines C5 (C5-DC) and C6 (C6-DC) levels in liver ([7]; HFD enriched with NA): teductions | long-chain acylcarnitines in liver ([7]; HFD+NA versus HFD): significant decreases; also recorded: largely restored to control levels | hydroxyl-fatty acylcarnitines in liver ([7]; NA enrichment in both diets, C4-OH, C6-OH, C10-OH, C8-OH): increased | acetyl-carnitine (C2) in liver [7, 8]: increased | free carnitine (C0) in liver [7, 8]: increased
